Test results as given in US20040253267A1 (priority 2003, published 2004).
Read-outs that look alike come from different tables or passages of the source.

Legend:
[1] = system: breast cancer cell line Ca615-B; assay: Tumor growth in 615 strain mouse model of human breast cancer (Example 6); type: in vivo; conditions: 31st day from tumor inoculation, 30 consecutive days treatment; AY/NY 0.3 ml oral once per day, TSPA 1.5 mg/kg/day i.v.
Method: In group TSPA, the mice were injected intravenously with 1.5 mg of thiotepa (TSPA) per kg body weight per day.

[2] = system: breast cancer cell line Ca615-B; assay: Survival time in 615 strain mouse model of human breast cancer (Example 7); type: in vivo; conditions: for Number of live animals remaining in the groups after 30 days of treatment: 30 mice per group
Method: In group 2TSPA, the mice were injected intravenously with 2.5 mg of thiotepa (TSPA) per kg body weight per day.

[3] = system: breast cancer cell line MA782/5S-B; conditions: for Number of live animals remaining in the groups after 30 days of treatment: 30 mice per group
Method: (§1) The animals used to generate the breast cancer cells for the experiments were female mice derived from an outbreed line of mouse (obtainable from the Chinese Academy of Military Medical Sciences, Beijing, China), having an average body weight of about 18 to 20 gram. About […] viable tumor cells of the breast cancer cell line MA782/5S-B (obtainable from the Cancer Institute, Chinese Academy of Medical Sciences, Beijing, China) in about 0.2 ml culture suspension were injected subcutaneously into the animals.
The survival time of mice after tumor injection and treatment was studied.
(§2) The biological composition comprising 10^8 cells per ml of activated and conditioned yeast cells of the strain Saccharomyces carlsbergensis Hansen strain AS2.441 was prepared by the methods described in Section 5.1 and subsections therein.
The animals were prepared in a similar manner as described in Section 8.1.
The mice injected with tumor cells were immediately divided into 4 experimental groups of ten mice per group and one control group. The four experimental groups were triplicated (i.e., using a total of 120 mice in the experimental groups). In group 2AY, the mice received 0.5 ml of the biological composition once per day. In group 2NY, the mice received 0.5 ml of the untreated yeast cells once per day. In group 2CTX, the mice were injected subcutaneously with 45 mg of cyclophosphamide (CTX) per kg body weight per day. In group 2CK1, the mice received 0.5 ml of physiological saline once per day.
The mice received the biological compositions, untreated yeast cells, CTX or saline on the same day as the tumor cells were transplanted. The mice in group 2CK2 also started receiving saline on the same day as the other four groups. The biological compositions, untreated yeast cells and saline were administered orally by a feeding tube and the CTX by subcutaneous injection for 30 consecutive days. The mice were observed over 6 months from the day of tumor inoculation and survival was recorded. The weight of the mice and the weight of the tumor were determined by standard techniques.

[4] = system: breast cancer cell line MA782/5S-B; conditions: 31st day from tumor inoculation, 30 consecutive days treatment; AY/NY 0.3 ml oral once per day, CTX 30 mg/kg/day s.c.
Method: as §2, §1
The mice injected with tumor cells were immediately divided into 4 experimental groups of ten mice per group and one control group. The four experimental groups were triplicated (i.e., using a total of 120 mice in the experimental groups).
The mice received the biological compositions, untreated yeast cells, CTX or saline on the same day as the tumor cells were transplanted. The mice in group CK2 also started receiving saline on the same day as the other four groups. […] The weight of the mice and the weight of the tumor were determined by standard techniques.

[5] = mice that survived, observed over 6 months, 2AY/2NY 0.5 ml oral once per day, 2TSPA 2.5 mg/kg/day i.v., 30 days
[6] = mice that survived, observed over 6 months, 2AY/2NY 0.5 ml oral once per day, 2CTX 45 mg/kg/day s.c., 30 days

S=P(N1CC1)(N1CC1)N1CC1 [TSPA, thiotepa]
mean weight of mice and standard deviation [1]: 20 ± 2.4 g | mean weight of tumor nodules and standard deviation [1]: 3.1 ± 1.6 mg | Number of live animals remaining in the groups after 30 days of treatment ([2]; 0 month after cessation of treatment, 2AY/2NY 0.5 ml oral once per day, 2TSPA 2.5 mg/kg/day i.v.): 30 | Number of live animals remaining in the groups after 30 days of treatment ([2]; 1 month after cessation of treatment, 2AY/2NY 0.5 ml oral once per day, 2TSPA 2.5 mg/kg/day i.v.): 30 | Number of live animals remaining in the groups after 30 days of treatment ([2]; 2 months after cessation of treatment, 2AY/2NY 0.5 ml oral once per day, 2TSPA 2.5 mg/kg/day i.v.): 23 | Number of live animals remaining in the groups after 30 days of treatment ([2]; 3 months after cessation of treatment, 2AY/2NY 0.5 ml oral once per day, 2TSPA 2.5 mg/kg/day i.v.): 11 | Number of live animals remaining in the groups after 30 days of treatment ([2]; 4 months after cessation of treatment, 2AY/2NY 0.5 ml oral once per day, 2TSPA 2.5 mg/kg/day i.v.): 4 | Number of live animals remaining in the groups after 30 days of treatment ([2]; 5 months after cessation of treatment, 2AY/2NY 0.5 ml oral once per day, 2TSPA 2.5 mg/kg/day i.v.): 0 | Number of live animals remaining in the groups after 30 days of treatment ([2]; 6 months after cessation of treatment, 2AY/2NY 0.5 ml oral once per day, 2TSPA 2.5 mg/kg/day i.v.): 0 | mean weight of mice and standard deviation [2, 5]: all animals dead | mean weight of tumor nodules and standard deviation [2, 5]: all animals dead | survival outcome (in words) ([2]; observed over 6 months, 2AY/2NY 0.5 ml per day, 2TSPA 2.5 mg/kg/day): all died during the experiment | mean weight of mice and standard deviation [3, 6]: all animals dead | mean weight of tumor nodules and standard deviation [3, 6]: all animals dead

O=P1(N(CCCl)CCCl)NCCCO1 (stereo not drawn) [CTX, cyclophosphamide]
Number of live animals remaining in the groups after 30 days of treatment ([3]; 0 month after cessation of treatment, 2AY/2NY 0.5 ml oral once per day, 2CTX 45 mg/kg/day s.c.): 30 | Number of live animals remaining in the groups after 30 days of treatment ([3]; 1 month after cessation of treatment, 2AY/2NY 0.5 ml oral once per day, 2CTX 45 mg/kg/day s.c.): 30 | Number of live animals remaining in the groups after 30 days of treatment ([3]; 2 months after cessation of treatment, 2AY/2NY 0.5 ml oral once per day, 2CTX 45 mg/kg/day s.c.): 17 | Number of live animals remaining in the groups after 30 days of treatment ([3]; 3 months after cessation of treatment, 2AY/2NY 0.5 ml oral once per day, 2CTX 45 mg/kg/day s.c.): 0 | Number of live animals remaining in the groups after 30 days of treatment ([3]; 4 months after cessation of treatment, 2AY/2NY 0.5 ml oral once per day, 2CTX 45 mg/kg/day s.c.): 0 | Number of live animals remaining in the groups after 30 days of treatment ([3]; 5 months after cessation of treatment, 2AY/2NY 0.5 ml oral once per day, 2CTX 45 mg/kg/day s.c.): 0 | Number of live animals remaining in the groups after 30 days of treatment ([3]; 6 months after cessation of treatment, 2AY/2NY 0.5 ml oral once per day, 2CTX 45 mg/kg/day s.c.): 0 | survival outcome (in words) ([3]; observed over 6 months, 2NY 0.5 ml per day, 2CTX 45 mg/kg/day): all died during the experiment | mean weight of mice and standard deviation [4]: 19.4 ± 2.2 g | mean weight of tumor nodules and standard deviation [4]: 3.1 ± 1.7 g
